The record followed here is patent EP3626820A1, “ANTICANCER COMPOSITIONS CONTAINING MIRNA MIMICS AND USES THEREOF” (Fundación Imdea Nanociencia, priority 2018, dated 2020).

Test [1] relates to Mel 202 cells. The test can be described thus: Cell cycle analysis by flow cytometry (propidium iodide). Format: cell-based. Particulars: Mel 202 cells harvested after treatment; SN38 25 nM; free (not on nanoparticles). As for the experimental part:
The samples were trypsinized (BioWest) and fixed with paraformaldehyde 1 % (v/v). The samples were stained for 3 h with 10 µ g/sample RNAsa A from Thermo Scientific and 20 µ g/sample propidium iodide from Sigma. The cell cycle analysis was performed in a Beckman coulter Cytomics 500 Flow cytometer and acquired data were analyzed with the Multicycle software.
These experiments were performed in cytometry service of Biotechnology National Centre of Spain.

For test [2], the system named is Mel 202 cells. The test can be described thus: alamarBlue cell viability assay. It is filed as cell-based. Particulars: Mel202, SN38 incubated 24 h, alamarBlue after additional 24 h. As for the experimental part:
Mel 202 cells were cultured in RPMI medium with 10 % fetal bovine serum (FBS), 1 % […]-Penicillin and 1 % L-Glutamine at 37 °C in an incubator. All the procedures were performed inside a laminar flow hood Telstar CV-30/70. Cells were grown in 24 wells plates (30000 cells).
stock solution of Resazurin sodium salt (1 mg/ml) in PBS was diluted 1 % (v/v) in complete RPMI. After incubation 3 h with the cells, the fluorescence was measured in a plate reader Synergy H4 Hybrid reader (BioTEK). Excitation (Ex) 550 nm; Emission (Em) 590 nm.
50 µl OptiMem was mixed with oligonucleotides (14, 15, 16, 17) or DNA mix 1. Then, it was mixed with 1 µl Lipofectamine 2000 in 50 µl optiMEM. The final mixture was incubated for 20 min and then 100 µl was added to cells. The final concentration of 14, 15, 16, 17 or DNA mix 1 was 140 nM. After 24 h the cells were washed 3 times with saline phosphate buffer (PBS) and complete medium was added.
SN38 stock solution was prepared at 100 µM in DMSO. Then different concentrations of SN38 (100 nM, 50 nM, 25 nM) were prepared in complete medium. It was incubated 24 h with the cells, then washed with PBS. After additional 24 h, the alamarBlue assay was carried out. […]
A volume of 100 µ L functionalized AuNPs were added in optiMEM (500 µ L total volume). The cells were incubated for 24 h, washed with PBS and the viability assessed.

pIC50: −log10 of the molar value.

On to `CCc1c2c(nc3ccc(O)cc13)-c1cc3c(c(=O)n1C2)COC(=O)[C@]3(O)CC` [SN38, 7-ethyl-10-hidroxycamptothecin], for which the “effect on the cell cycle” value in test [1] is on record as “significantly increases G2/M”. Moreover, the pIC50 in test [2] is 7.00.
